Data published in article PMC6175062, “Gaining Mechanistic Insight Into Coproporphyrin I as Endogenous Biomarker for OATP1B‐Mediated Drug–Drug Interactions Using Population Pharmacokinetic Modeling and Simulation” (Clinical Pharmacology and Therapeutics, 2018).
Like-named read-outs stand apart in the source and are kept apart here.

How the values were obtained:
[1] = tested on: OATP; experiment: Model-based rifampicin in vivo OATP Ki using rosuvastatin as probe; design: species or system human; settings: total (not corrected for fu); RSV as probe; read-out: KiRSV, total Ki estimated by the model, population estimate (SE%)
Description: Based on the available plasma and urine data, a two compartment first order absorption and elimination model was used to describe the PK of RSV in the subjects. The model was parameterised using [picture] , volume of distribution of central ( [picture] ) and peripheral compartments ( [picture] ), inter-compartmental clearance ( [picture] ), biliary ( [picture] ) and renal ( [picture] ) clearance parameters. Analogous to CPI, inhibition of [picture] by RIF was incorporated in the rate of change of RSV plasma concentration, whereas it was assumed that RIF has no effect on RSV renal elimination (Eq 2). The rate of change of RSV amount in urine over time is shown in Eq3.
where [picture] and [picture] are RSV concentrations in central (plasma) and peripheral compartments, [picture] is the amount in depot compartment, [picture] is RSV amount in the urine and [picture] is RIF transporter inhibition constant using RSV as a probe. Change in RSV distribution parameters ( [picture] , [picture] and [picture] ) following co-administration with RIF was also investigated as a binary covariate where two sets of parameters were estimated under the two experimental conditions; RSV alone and RSV under treatment (presence of RIF).

[2] = tested on: OATP1B-mediated CPI uptake in human hepatocytes; experiment: Rifampicin inhibition of CPI uptake in plated human hepatocytes; type: cell-based
Experimental: (§1) The in vitro IC50 for rifampicin was assessed using CPI and RSV as OATP probe substrates in plated human hepatocytes. Cryopreserved human hepatocytes (Donor QQE, BioreclamationIVT, Baltimore, MD) were thawed and plated at a density of 350,000 cells (1). After culturing for 4h, hepatocytes were washed twice with Dulbecco's phosphate-buffered saline and pre-incubated for an hour with either buffer or rifampicin (0.01-100µM). Following pre-incubation, the medium was replaced with CPI (0.30µM) or RSV (2µM) containing rifampicin (0-100µM). Incubations were stopped after 3 or 5 minutes (for RSV and CPI,respectively) using the washing protocol described previously (2). Monolayers were lysed with water and frozen overnight and then prepared for protein quantification (BCA assay) and LC-MS/MS analysis.
(§2) Lysate concentrations were used to demine uptake rates over a series of free RIF concentrations measured in the medium and plotted as a % of the control to estimate RIF IC50 (Main article Figure 5A and Figure S1). RIF IC50 was determined using equation 1, where U denotes the uptake rate (% vs control) at the free inhibitor concentration in the incubation [I] (µM); R, the range of inhibition; B, the un-inhibitable background (%), and S, the slope factor (GraFit v6).

[3] = tested on: OATP1B; experiment: as above; type: cell-based; settings: human, plated cryopreserved human hepatocytes, probe CPI (coproporphyrin I) 0.30 µM, CPI 0.30 µM
Experimental: as §1, §2

[4] = tested on: OATP-mediated rosuvastatin uptake in human hepatocytes; experiment: Rifampicin inhibition of rosuvastatin uptake in plated human hepatocytes; type: cell-based; settings: RSV 2 µM; no pre-incubation effect, same donor
Experimental: as §1, §2

[5] = tested on: OATP1B1; settings: cited from earlier work
[6] = tested on: MRP2; design: method as in PMID 28325716; settings: read-out: IC50, inhibition of MRP2 transport of CPI; cited from earlier work

Question: For `CO[C@H]1/C=C/O[C@@]2(C)Oc3c(C)c(O)c4c(O)c(c(/C=N/N5CCN(C)CC5)c(O)c4c3C2=O)NC(=O)/C(C)=C\C=C\[C@H](C)[C@H](O)[C@@H](C)[C@@H](O)[C@@H](C)[C@H](OC(C)=O)[C@@H]1C` [rifampicin], which Ki [1] is on record?
Answer: 2.23 µM

Question: What about the “IC50 with CPI in hepatocytes, fold lower than reported values in transfected OATP1B1 cells” value [2] of the same compound?
Answer: up to 10 fold

Question: What about the “increase in potency of inhibition of CPI uptake by preincubation with RIF” value [2] of the same compound?
Answer: ~2 fold

Question: What about the “in vitro hepatocyte inhibition parameter (after preincubation) relative to in vivo Ki” value ([2]; in vitro higher than in vivo) of the same compound?
Answer: 4 fold

Question: And the IC50 at 5 min ([3]; 60 min pre-incubation with buffer, read-out: IC50, CPI uptake, pre-incubation with buffer)?
Answer: 0.73 µM

Question: And the IC50 at 5 min ([3]; 60 min pre-incubation with inhibitor, donor QQE, read-out: IC50, CPI uptake, pre-incubation with RIF)?
Answer: 0.3 µM

Question: And the IC50 [4]?
Answer: 1 µM

Question: What about the IC50 ([5]; substrate Atorvastatin 1 µM, HEK, rifampicin 0.1-630 µM, ref (11)) of the same compound?
Answer: 2.2 µM

Question: What about the IC50 ([5]; substrate BSP 0.01 µM, HEK, rifampicin 0.01-100 µM, ref (7)) of the same compound?
Answer: 2.75 µM

Question: What about the IC50 ([5]; substrate Coproporphyrin I 0.1 µM, CHO, rifampicin 0.1-100 µM, ref (3)) of the same compound?
Answer: 3.25 µM

Question: What about the IC50 ([5]; substrate Coproporphyrin I 0.2 µM, HEK, rifampicin 0.1-100 µM, ref (4)) of the same compound?
Answer: 0.66 µM

Question: And the IC50 ([5]; substrate Coproporphyrin III 0.1 µM, CHO, rifampicin 0.1-100 µM, ref (3))?
Answer: 4.61 µM

Question: And the IC50 ([5]; substrate Coproporphyrin III 0.2 µM, HEK, rifampicin 0.1-100 µM, ref (4))?
Answer: 0.79 µM

Question: And the IC50 ([5]; substrate Fexofenadine 1 µM, HEK, rifampicin 0.01-100 µM, ref (10))?
Answer: 0.423 µM

Question: And the IC50 ([5]; substrate GCDCA-S 1 µM, HEK, rifampicin 0.1-30 µM, ref (5))?
Answer: 0.39 µM

Question: What about the IC50 ([5]; substrate Nateglinide 1 µM, HEK, rifampicin 0.01-100 µM, ref (10)) of the same compound?
Answer: 0.358 µM

Question: And the IC50 ([5]; substrate Pitavastatin 0.1 µM, HEK, rifampicin 0.01-100 µM, ref (10))?
Answer: 1.07 µM

Question: And the IC50 ([5]; substrate Pitavastatin 0.1 µM, MDCKII, rifampicin 0.1-100 µM, ref (8))?
Answer: 1.6 µM

Question: What about the IC50 ([5]; substrate Pravastatin 10 µM, HEK, rifampicin 0.01-100 µM, ref (10)) of the same compound?
Answer: 0.653 µM

Question: What about the IC50 ([5]; substrate Rosuvastatin 0.1 µM, HEK, ref (9)) of the same compound?
Answer: 1.1 µM

Question: What about the IC50 ([5]; substrate Rosuvastatin 0.1 µM, MDCKII, rifampicin 0.1-100 µM, ref (8)) of the same compound?
Answer: 1.1 µM

Question: What about the IC50 ([5]; substrate Rosuvastatin 1 µM, HEK, rifampicin 0.01-100 µM, ref (10)) of the same compound?
Answer: 0.952 µM

Question: And the IC50 ([5]; substrate Valsartan 1 µM, HEK, rifampicin 0.01-100 µM, ref (10))?
Answer: 0.377 µM

Question: And the IC50 ([5]; substrate [3H]-E1S 0.01 µM, HEK, rifampicin 0.01-100 µM, ref (7))?
Answer: 6.96 µM

Question: And the IC50 ([5]; substrate [3H]-E2G 0.1 µM, HEK, rifampicin 0.01-100 µM, ref (7))?
Answer: 0.585 µM

Question: What about the IC50 [6] of the same compound?
Answer: 83 µM
